{"source": "patent US9757473B2", "about": "“Cell-penetrating peptide and conjugate comprising same” (GEMVAX & KAEL CO., LTD., priority 2013, dated 2017)", "type_in_all_cases": "cell-based", "key": {"[1]": {"system": "head and neck cancer cells", "test": "Dose-dependent cell apoptosis by MTT assay, cancer cell lines (Example 5)", "conditions": "MTT at 72 hours", "experimental": "(§1) The cell line was made by the cells and the cell cultivation method described in example 2 as same.\n(§2) After culturing the cancer cells and normal cells at 96 well-plate in 30-40% level 24-hours in advance by pre-seeding, treating with each reagent, and pre-evaluating killing ability by analyzing cell shape through microscope at 24 hours/48 hours/72 hours after, the quantitative analysis was done by MTT (3-(4,5-dimethylthiazol-2-yl)-2,5-diphenyltetrazolium bromide, a yellow tetrazole) assay which measures OD (optical density) values at 72 hours after."}, "[2]": {"system": "normal cell DPSC (Dental Pulp Stem Cell)", "test": "Dose-dependent cell apoptosis by MTT assay, normal cells (Example 5)", "experimental": "as §1, §2"}, "[3]": {"system": "SNU-1041 and SNU-1076 head and neck cancer cells", "test": "Intracellular trafficking (cell penetrability) by flow cytometry (FACS)", "conditions": "SNU-1041 and SNU-1076 cells, 10 uM, 2.5 hours, FIG. 2", "experimental": "In order to analysis of intracellular trafficking, Korean head and neck cancer cells (SNU-1041, SNU-1076), head and neck cancer cells founded by MD Anderson cancer center (OSC19, HN5), and normal cells DPSC (Dental Pulp Stem Cell) were used.\n(§3) The cell lines was maintained in good condition by seeding each cells to 100 cm2-culture dishes with RPMI-1640 or DMEM culture-media, 10% FBS and antibiotic-antimycotic antibiotics and culturing in incubator (37° C., 5% CO2). The condition of cells was maintained in good condition by checking the speed and conditions of cells and sub-culturing cells per 2-5 days.\nAfter culturing the cells with prepared cancer cells in 6 well-plate at 60-70% level 24-hours in advance, treating FITC (10 uM), pep1-FITC (10 uM), FITC-TAT (10 uM) separately, eliminating the culture media 2.5 hours later, washing with saline, and separating cells by treating Trypsin-EDTA enzyme to prepare each tube of 10^6 cells/ml, the cells was analyzed by FACS."}, "[4]": {"system": "HN5 and OSC19 head and neck cancer cells", "test": "Intracellular trafficking (cell penetrability) by flow cytometry (FACS)", "conditions": "10 uM, 2.5 hours", "experimental": "as §3, with “In order to analysis of intracellular trafficking, Korean head and neck cancer cells (SNU-1041, SNU-1076), head and neck cancer cells founded by MD Anderson cancer center (OSC19, HN5), and normal cells DPSC (Dental Pulp Stem Cell) were used. The cell” for “The cell”"}, "[5]": {"system": "head and neck cancer cells", "test": "Intracellular trafficking (cell penetrability) by flow cytometry (FACS)", "conditions": "10 uM, 2.5 hours", "experimental": "as §3, with “In order to analysis of intracellular trafficking, Korean head and neck cancer cells (SNU-1041, SNU-1076), head and neck cancer cells founded by MD Anderson cancer center (OSC19, HN5), and normal cells DPSC (Dental Pulp Stem Cell) were used. The cell” for “The cell”"}}, "note": "Residues, ends and D or L forms follow the SMILES beside them. No end group written: not given here."}
{"compound": "Cc1ccc(S(=O)(=O)OCC(=O)Nc2ccc(C(=O)O)c(O)c2)cc1", "note": "[NSC 74859]", "values": [{"measurement": "concentration from which killing / apoptosis of cancer cells started", "setting": "[1]; FIG. 4, FIG. 5", "result": 50, "unit": "µM"}, {"measurement": "concentration killing almost the whole cancer cells", "setting": "[1]; FIG. 4, FIG. 5", "result": 200, "unit": "µM"}, {"measurement": "concentration at which cell apoptosis of normal cells was shown", "setting": "[2]; MTT at 72 hours, FIG. 4", "result": 200, "unit": "µM"}, {"measurement": "concentration till which normal cells were not killed", "setting": "[2]; MTT at 72 hours, FIG. 4", "result": 100, "unit": "µM"}]}
{"compound": "pep 1: pep 1 (consists of 16 amino acids) derived from telomerase, used for comparison (EARPALLTSRLRFIPK; UniProt O14746 611-626, looked up, fragment)", "values": [{"measurement": "cell penetrability (in words)", "setting": "[3]", "result": "high cell penetrability"}]}
{"compound": "pep1-FITC (EARPALLTSRLRFIPK; also: FITC label, site not given here; UniProt O14746 611-626, looked up, fragment)", "values": [{"measurement": "cell penetrability (in words)", "setting": "[4]", "result": "lower cell penetrability"}, {"measurement": "cell penetrability compared with FITC only", "setting": "[5]", "result": "improved cell penetrability than the FITC only"}]}
{"compound": "NRGFKAGRNMRRKLFGVLRL [pep98]", "values": [{"measurement": "proliferation of cancer cells (cytotoxicity)", "setting": "[1]; treated alone, FIG. 3", "result": "not significantly decreased"}]}
{"compound": "CSCC[C@H](NC(=O)[C@H](CC(N)=O)NC(=O)[C@H](CCCNC(=N)N)NC(=O)CNC(=O)[C@H](C)NC(=O)[C@H](CCCCN)NC(=O)[C@H](Cc1ccccc1)NC(=O)CNC(=O)[C@H](CCCNC(=N)N)NC(=O)[C@H](CC(N)=O)NC(=O)c1ccc(NC(=O)COS(=O)(=O)c2ccc(C)cc2)cc1O)C(=O)N[C@@H](CCCNC(=N)N)C(=O)N[C@@H](CCCNC(=N)N)C(=O)N[C@@H](CCCCN)C(=O)N[C@@H](CC(C)C)C(=O)N[C@@H](Cc1ccccc1)C(=O)NCC(=O)N[C@H](C(=O)N[C@@H](CC(C)C)C(=O)N[C@@H](CCCNC(=N)N)C(=O)N[C@@H](CC(C)C)C(=O)O)C(C)C", "note": "[pep98-NSC 74859] (HELM PEPTIDE1{[Cc1ccc(S(=O)(=O)OCC(=O)[*:2])cc1].[O=C(c1ccc(N[*:1])cc1O)[*:2]].N.R.G.F.K.A.G.R.N.M.R.R.K.L.F.G.V.L.R.L}$$$$V2.0)", "values": [{"measurement": "killing of normal cells (in words)", "setting": "[2]; at the concentration that killed almost the whole cancer cells, FIG. 5", "result": "did not kill normal cell DPSC"}]}
